Reference: PubChem BioAssay AID248 (DTP/NCI, 2004)
Values joined by “and” are separate entries in the source; they are usually repeats but may differ in a detail not shown here. Identical values can stand only once. Inconclusive results and toxic doses are left out. Cut-off read from the data, not from the text of the source: active = T/C of 150% or more; inactive = T/C below 125%. Square brackets hold non-standard residues; d marks the D form. Peptide text beside a SMILES is read from it. * marks the point of attachment. ξ: configuration not given here. Octanoyl = CCCCCCCC(=O)*; ξP = O=C(O)C1CCCN1

Tested on: L1210 leukemia ip in BDF1 mice, survival T/C
Assay: NCI In Vivo Anticancer Drug Screen. Data for tumor model L1210 Leukemia (intraperitoneal) in B6D2F1 (BDF1) mice
Conditions: endpoint: mean survival time, higher = longer survival
In short: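 Each compound was tested against a transplantable tumor grown in mice. The endpoint was survival, with treated animals benchmarked against vehicle controls as a simple ratio.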

[1] = dose: 12.5 mg/kg/injection, schedule: Q01DX009 (ip), vehicle: saline
[2] = dose: 25.0 mg/kg/injection, schedule: Q01DX009 (ip), vehicle: saline
[3] = dose: 50.0 mg/kg/injection, schedule: Q01DX009 (ip), vehicle: saline
[4] = dose: 100.0 mg/kg/injection, schedule: Q04DX003 (ip), vehicle: saline with Tween-80
[5] = dose: 200.0 mg/kg/injection, schedule: Q04DX003 (ip), vehicle: saline with Tween-80
[6] = dose: 400.0 mg/kg/injection, schedule: Q04DX003 (ip), vehicle: saline with Tween-80
[7] = dose: 100.0 mg/kg/injection, schedule: Q01DX001 (ip), vehicle: saline
[8] = dose: 100.0 mg/kg/injection, schedule: Q01DX009 (ip), vehicle: Klucel (hydroxypropylcellulose) (HPC)
[9] = dose: 200.0 mg/kg/injection, schedule: Q01DX009 (ip), vehicle: Klucel (hydroxypropylcellulose) (HPC)
[10] = dose: 400.0 mg/kg/injection, schedule: Q01DX009 (ip), vehicle: Klucel (hydroxypropylcellulose) (HPC)
[11] = dose: 25.0 mg/kg/injection, schedule: Q01DX009 (ip), vehicle: Klucel (hydroxypropylcellulose) (HPC)
[12] = dose: 50.0 mg/kg/injection, schedule: Q01DX009 (ip), vehicle: Klucel (hydroxypropylcellulose) (HPC)
[13] = dose: 100.0 mg/kg/injection, schedule: Q01DX009 (ip), vehicle: saline with Tween-80
[14] = dose: 200.0 mg/kg/injection, schedule: Q01DX009 (ip), vehicle: saline with Tween-80
[15] = dose: 100.0 mg/kg/injection, schedule: Q04DX003 (ip), vehicle: saline
[16] = dose: 25.0 mg/kg/injection, schedule: Q04DX003 (ip), vehicle: saline
[17] = dose: 50.0 mg/kg/injection, schedule: Q04DX003 (ip), vehicle: saline

Measured: T/C

C=C(C)C1(O)C=CC(=O)O1 (centres undefined)
inactive: [1] 102 % of control | [2] 100 % of control | [3] 107 % of control

CCNC(=S)NNc1ccccc1
inactive: [4] 100 % of control | [5] 96 % of control

CCCCCCCCCCCCCCCCCCOC(C)OCCCCCCCCCCCCCCCCCC
inactive: [4] 89 % of control | [5] 89 % of control | [6] 87 % of control

Clc1cccc(N2CCN(c3c4c(nc5ccccc35)CCCCC4)CC2)c1
inactive: [7] 93 % of control | dose: 200.0 mg/kg/injection, schedule: Q01DX001 (ip), vehicle: saline 88 % of control | dose: 400.0 mg/kg/injection, schedule: Q01DX001 (ip), vehicle: saline 90 % of control

O=C(Nc1cccc(O)c1)c1ccc([N+](=O)[O-])cc1
inactive: [8] 93 % of control | [9] 90 % of control | [10] 90 % of control

CCCCC(CC)C1N(C)CCCN1C (centres undefined)
inactive: [4] 92 % of control | [5] 98 % of control

ClN=C(c1ccccc1)c1ccccc1
inactive: dose: 12.0 mg/kg/injection, schedule: Q01DX009 (ip), vehicle: Klucel (hydroxypropylcellulose) (HPC) 110 % of control | [11] 102 % of control | [12] 107 % of control | dose: 100.0 mg/kg/injection, schedule: Q04DX003 (ip), vehicle: Klucel (hydroxypropylcellulose) (HPC) 100 % of control | dose: 200.0 mg/kg/injection, schedule: Q04DX003 (ip), vehicle: Klucel (hydroxypropylcellulose) (HPC) 98 % of control

Brc1cscc1-c1cccc2ccccc12
inactive: [13] 86 % of control | [14] 86 % of control

Cc1cc(NC(=O)NCCCCCCNC(=O)Nc2cc(C)on2)no1
inactive: dose: 100.0 mg/kg/injection, schedule: Q01DX009 (ip), vehicle: other 89 % of control | dose: 200.0 mg/kg/injection, schedule: Q01DX009 (ip), vehicle: other 111 % of control | dose: 400.0 mg/kg/injection, schedule: Q01DX009 (ip), vehicle: other 100 % of control

CCCCCCCC(=O)N1CCCC1C(=O)NCC(=O)NCC(=O)O (stereo not drawn) (Octanoyl-[ξP]-Gly-Gly-OH)
inactive: dose: 100.0 mg/kg/injection, schedule: Q01DX001 (ip), vehicle: Klucel (hydroxypropylcellulose) (HPC) 115 % of control | dose: 200.0 mg/kg/injection, schedule: Q01DX001 (ip), vehicle: Klucel (hydroxypropylcellulose) (HPC) 95 % of control | dose: 400.0 mg/kg/injection, schedule: Q01DX001 (ip), vehicle: Klucel (hydroxypropylcellulose) (HPC) 95 % of control

CC(C)(C)OC(=O)c1ccc(C#N)cc1
inactive: dose: 100.0 mg/kg/injection, schedule: Q01DX001 (ip), vehicle: carboxymethylcellulose (CMC) 96 % of control | dose: 200.0 mg/kg/injection, schedule: Q01DX001 (ip), vehicle: carboxymethylcellulose (CMC) 100 % of control | dose: 400.0 mg/kg/injection, schedule: Q01DX001 (ip), vehicle: carboxymethylcellulose (CMC) 100 % of control

CC(C)NNC(=O)c1ccc(N)cc1
inactive: [15] 105 % of control | dose: 200.0 mg/kg/injection, schedule: Q04DX003 (ip), vehicle: saline 113 % of control | dose: 400.0 mg/kg/injection, schedule: Q04DX003 (ip), vehicle: saline 108 % of control

CC(C)(C)C(=O)C1C(=O)c2ccccc2C1=O
inactive: dose: 0.25 mg/kg/injection, schedule: Q01DX009 (ip), vehicle: Klucel (hydroxypropylcellulose) (HPC) 101 % of control | dose: 0.25 mg/kg/injection, schedule: Q04DX003 (ip), vehicle: Klucel (hydroxypropylcellulose) (HPC) 95 % of control | dose: 0.5 mg/kg/injection, schedule: Q01DX009 (ip), vehicle: Klucel (hydroxypropylcellulose) (HPC) 95 % of control | dose: 0.5 mg/kg/injection, schedule: Q04DX003 (ip), vehicle: Klucel (hydroxypropylcellulose) (HPC) 101 % of control | dose: 1.0 mg/kg/injection, schedule: Q01DX009 (ip), vehicle: Klucel (hydroxypropylcellulose) (HPC) 104 % of control | dose: 1.0 mg/kg/injection, schedule: Q04DX003 (ip), vehicle: Klucel (hydroxypropylcellulose) (HPC) 100 % of control

CNNC(=O)c1cccnc1
inactive: dose: 25.0 mg/kg/injection, schedule: Q01DX001 (ip), vehicle: saline 95 % of control | [2] 95 % of control and 98 % of control | [16] 105 % of control | dose: 50.0 mg/kg/injection, schedule: Q01DX001 (ip), vehicle: saline 100 % of control | [3] 95 % of control and 100 % of control | [17] 104 % of control | [7] 102 % of control | dose: 100.0 mg/kg/injection, schedule: Q01DX009 (ip), vehicle: saline 95 % of control and 98 % of control | [15] 98 % of control

C/C(=N/NC(=O)CNC(=O)c1ccccc1)c1ccc2ccccc2c1
inactive: [13] 87 % of control | [14] 100 % of control

COc1ccc([N+](=O)[O-])cc1NC(=O)c1ccc(Cl)cc1
inactive: [12] 96 % of control | [8] 94 % of control | [9] 95 % of control | [10] 94 % of control

CNC(=S)Nc1c(C)cc(C)cc1C
inactive: dose: 25.0 mg/kg/injection, schedule: Q01DX009 (ip), vehicle: saline with Tween-80 98 % of control and 108 % of control | dose: 50.0 mg/kg/injection, schedule: Q01DX001 (ip), vehicle: saline with Tween-80 100 % of control | dose: 50.0 mg/kg/injection, schedule: Q01DX009 (ip), vehicle: saline with Tween-80 98 % of control and 105 % of control | dose: 100.0 mg/kg/injection, schedule: Q01DX001 (ip), vehicle: saline with Tween-80 91 % of control | [13] 97 % of control and 92 % of control | dose: 100.0 mg/kg/injection, schedule: Q04DX002 (ip), vehicle: saline with Tween-80 104 % of control and 106 % of control | [4] 104 % of control | dose: 200.0 mg/kg/injection, schedule: Q01DX001 (ip), vehicle: saline with Tween-80 96 % of control | dose: 200.0 mg/kg/injection, schedule: Q04DX002 (ip), vehicle: saline with Tween-80 96 % of control | [5] 94 % of control | [6] 95 % of control

O=[N+]([O-])c1cc(/C=N/NC(=S)NC23CC4CC(CC(C4)C2)C3)ccc1Cl
inactive: dose: 75.0 mg/kg/injection, schedule: Q01DX001 (ip), vehicle: other 97 % of control | dose: 150.0 mg/kg/injection, schedule: Q01DX001 (ip), vehicle: other 89 % of control | dose: 300.0 mg/kg/injection, schedule: Q01DX001 (ip), vehicle: other 91 % of control

CCN(CC)CCC(CCN(CC)CC)(CNC(=O)CN(CC)CC)c1cccc2ccccc12
inactive: [1] 97 % of control | dose: 12.5 mg/kg/injection, schedule: Q04DX003 (ip), vehicle: saline 87 % of control | [2] 114 % of control | [16] 95 % of control | [3] 108 % of control | [17] 88 % of control

CCCc1nc2c(OC)ccc(OC)c2nc1C
inactive: dose: 12.5 mg/kg/injection, schedule: Q01DX009 (ip), vehicle: Klucel (hydroxypropylcellulose) (HPC) 98 % of control | [11] 97 % of control | [12] 92 % of control | [8] 94 % of control | dose: 100.0 mg/kg/injection, schedule: Q04DX003 (ip), vehicle: acetone 97 % of control | [9] 86 % of control | dose: 200.0 mg/kg/injection, schedule: Q04DX003 (ip), vehicle: acetone 97 % of control | dose: 400.0 mg/kg/injection, schedule: Q04DX003 (ip), vehicle: acetone 98 % of control
